Measurements as given in patent US11116760B2 (Gilead Sciences, Inc., priority 2018, dated 2021).

Target: α4β7 integrin (Homo sapiens (Human), UniProt P13612+P26010)
Test: α4β7 Integrin Cell Capture Assay
Format: cell-based
Procedure: α4β7 Integrin Cell Capture Assay
The potency of inhibitors in preventing α4β7 integrin interaction with MadCAM-1 was measured by monitoring the capture of α4β7 integrin expressing cells on a recombinant MadCAM-1 extracellular domain-coated plate. […] The plates were then washed with PBS and blocked with 3% BSA for 2 hours before being washed again.
RPM18866 cells were spun down and re-suspended in assay medium (DMEM+0.5% FBS+0.5 mM MnCl2) at a density of 0.5×10^6 cells/mL. […] The plates were incubated at 37° C. for 1 hour. 50 μL of cells were transferred to the blocked, MadCAM-1-coated plates and incubated for 30 minutes at 37° C. […] The plates were incubated for 90 minutes at room temperature. The plates were then washed 3 times with 70 μL of PBS per well and imaged on a Cellomics ArrayScan instrument. The cells that were bound to the plate were counted and plotted against the compound concentration to determine the EC50 of the test compounds.

[1] = RPMI8866 cells captured on MadCAM-1 extracellular domain-coated plate
[2] = Table 1, capture of α4β7 expressing RPM18866 cells on MadCAM-1 extracellular domain-coated plate
[3] = Table 2, capture of α4β7 expressing RPM18866 cells on MadCAM-1 extracellular domain-coated plate

Sequence of α4β7 integrin (P13612 34-1032): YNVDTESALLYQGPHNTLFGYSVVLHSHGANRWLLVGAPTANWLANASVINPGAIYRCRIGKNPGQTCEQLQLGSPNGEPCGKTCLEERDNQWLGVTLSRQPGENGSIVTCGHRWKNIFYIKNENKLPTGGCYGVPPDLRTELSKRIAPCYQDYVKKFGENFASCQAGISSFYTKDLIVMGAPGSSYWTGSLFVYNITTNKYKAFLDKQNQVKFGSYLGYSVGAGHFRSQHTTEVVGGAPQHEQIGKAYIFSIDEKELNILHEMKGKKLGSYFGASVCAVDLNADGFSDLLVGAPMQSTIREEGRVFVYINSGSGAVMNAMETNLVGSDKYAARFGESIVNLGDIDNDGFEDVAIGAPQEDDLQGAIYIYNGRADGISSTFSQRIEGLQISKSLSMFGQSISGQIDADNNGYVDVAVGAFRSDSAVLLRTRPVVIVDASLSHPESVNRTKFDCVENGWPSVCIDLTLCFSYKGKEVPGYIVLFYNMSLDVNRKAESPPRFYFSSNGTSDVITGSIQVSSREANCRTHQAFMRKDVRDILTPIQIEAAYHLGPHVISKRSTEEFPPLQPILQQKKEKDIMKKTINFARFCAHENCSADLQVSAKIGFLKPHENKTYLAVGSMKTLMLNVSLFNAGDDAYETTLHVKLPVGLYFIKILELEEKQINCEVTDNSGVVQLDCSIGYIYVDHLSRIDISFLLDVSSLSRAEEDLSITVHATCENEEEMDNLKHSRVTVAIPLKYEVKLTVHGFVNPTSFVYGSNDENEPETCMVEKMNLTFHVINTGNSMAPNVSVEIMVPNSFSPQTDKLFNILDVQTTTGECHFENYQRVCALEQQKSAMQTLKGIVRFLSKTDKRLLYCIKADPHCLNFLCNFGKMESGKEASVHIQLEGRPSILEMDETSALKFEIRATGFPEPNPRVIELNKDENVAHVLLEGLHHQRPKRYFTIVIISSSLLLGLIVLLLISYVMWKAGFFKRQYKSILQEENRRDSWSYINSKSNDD
Sequence of α4β7 integrin (P26010 20-798): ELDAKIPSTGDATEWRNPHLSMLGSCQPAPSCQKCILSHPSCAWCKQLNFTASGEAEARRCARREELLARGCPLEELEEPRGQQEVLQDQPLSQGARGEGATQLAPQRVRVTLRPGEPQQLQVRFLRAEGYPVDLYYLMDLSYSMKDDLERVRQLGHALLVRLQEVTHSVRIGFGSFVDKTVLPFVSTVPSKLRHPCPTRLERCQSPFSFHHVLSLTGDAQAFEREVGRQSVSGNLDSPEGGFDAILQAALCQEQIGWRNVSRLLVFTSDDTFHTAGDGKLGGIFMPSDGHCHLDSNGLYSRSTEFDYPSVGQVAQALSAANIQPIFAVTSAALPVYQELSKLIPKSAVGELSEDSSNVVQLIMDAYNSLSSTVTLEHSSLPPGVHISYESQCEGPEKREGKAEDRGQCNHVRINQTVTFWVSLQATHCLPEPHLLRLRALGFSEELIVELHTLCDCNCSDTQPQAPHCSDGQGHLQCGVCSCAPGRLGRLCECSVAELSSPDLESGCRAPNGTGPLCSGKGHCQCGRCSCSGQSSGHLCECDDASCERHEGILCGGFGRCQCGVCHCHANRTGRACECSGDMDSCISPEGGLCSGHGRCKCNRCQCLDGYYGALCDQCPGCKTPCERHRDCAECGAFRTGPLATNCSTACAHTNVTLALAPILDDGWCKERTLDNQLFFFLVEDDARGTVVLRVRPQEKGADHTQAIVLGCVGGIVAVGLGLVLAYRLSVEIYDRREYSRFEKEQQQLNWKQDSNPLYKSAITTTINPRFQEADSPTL

EC50 [2] | EC50 [3] | other results | Compound
– | – | EC50 [1]: 0.196 nM | Cn1c(=O)n(-c2ccc(C[C@H](NC(=O)c3c(F)cc(N4CCOC[C@@H]4C(F)(F)F)cc3F)C(=O)O)c3cccnc23)c(=O)c2cnccc21 [Example 473]
0.3 nM | – | – | COc1cc(C)n(C)c(=O)c1-c1ccc(C[C@H](NC(=O)c2c(F)cc(N3CCOC[C@@H]3C(F)(F)F)cc2F)C(=O)O)c2cccnc12 [Example 102, (S)-2-(2,6-difluoro-4-((R)-3-(trifluoromethyl)morpholino)benzamido)-3-(8-(4-methoxy-1,6-dimethyl-2-oxo-1,2-dihydropyridin-3-yl)quinolin-5-yl)propanoic acid]
9.3 nM | – | – | CC[C@@H](Nc1cc(F)c(C(=O)N[C@@H](Cc2ccc(-c3c(C)n(C)c4ccc(F)cc4c3=O)c3ncccc23)C(=O)O)c(F)c1)C(F)(F)F [Example 127, (S)-2-(2,6-difluoro-4-(((R)-1,1,1-trifluorobutan-2-yl)amino)benzamido)-3-(6-fluoro-1,2-dimethyl-4-oxo-1,4-dihydro-[3,8′-biquinolin]-5′-yl)propanoic acid]
1.5 nM | – | – | CC[C@@H](Nc1cc(F)c(C(=O)N[C@@H](Cc2ccc(-c3cnc(C)n(C)c3=O)c3ncccc23)C(=O)O)c(F)c1)C(F)(F)F [Example 118, (S)-2-(2,6-difluoro-4-(((R)-1,1,1-trifluorobutan-2-yl)amino)benzamido)-3-(8-(1,2-dimethyl-6-oxo-1,6-dihydropyrimidin-5-yl)quinolin-5-yl)propanoic acid]
– | 0.8 nM | – | CC[C@@H](Nc1cc(F)c(C(=O)N[C@@H](Cc2ccc(-c3c(C)cc(C)n(C)c3=O)c3ncccc23)C(=O)O)c(F)c1)C(F)(F)F [Example 345]
– | – | EC50 [1]: 0.1 nM | Cc1cc(N2CCOC[C@@H]2C(F)(F)F)cc(F)c1C(=O)N[C@@H](Cc1ccc(-n2c(=O)c3nccnc3n(C)c2=O)c2ncccc12)C(=O)O [Example 404, (S)-2-(2-fluoro-6-methyl-4-((R)-3-(trifluoromethyl)morpholino)benzamido)-3-(8-(1-methyl-2,4-dioxo-1,4-dihydropteridin-3(2H)-yl)quinolin-5-yl)propanoic acid]
0.5 nM | – | – | Cn1c(=O)c(-c2ccc(C[C@H](NC(=O)c3c(F)cc(N4CCOC[C@@H]4C(F)(F)F)cc3F)C(=O)O)c3cccnc23)cc2ccccc21 [Example 104, (S)-2-(2,6-difluoro-4-((R)-3-(trifluoromethyl)morpholino)benzamido)-3-(1-methyl-2-oxo-1,2-dihydro-[3,8′-biquinolin]-5′-yl)propanoic acid]
1.2 nM | – | – | CC[C@@H](Nc1cc(F)c(C(=O)N[C@@H](Cc2ccc(-c3cc(Cl)c(C)n(C)c3=O)c3ncccc23)C(=O)O)c(F)c1)C(F)(F)F [Example 116, (S)-3-(8-(5-chloro-1,6-dimethyl-2-oxo-1,2-dihydropyridin-3-yl)quinolin-5-yl)-2-(2,6-difluoro-4-(((R)-1,1,1-trifluorobutan-2-yl)amino)benzamido)propanoic acid]
9 nM | – | – | CCOCc1cc(OC)c(-c2ccc(C[C@H](NC(=O)c3c(F)cccc3F)C(=O)O)c3cccnc23)c(OC)c1 [Example 18, (S)-2-(2,6-difluorobenzamido)-3-(8-(4-(ethoxymethyl)-2,6-dimethoxyphenyl)quinolin-5-yl)propanoic acid]
56.7 nM | – | – | CC(O)Cc1cc(F)c(C(=O)N[C@@H](Cc2ccc(-c3ccc(C#N)cc3Cl)c3ncccc23)C(=O)O)c(F)c1 (stereo partly drawn) [Example 24, (2S)-3-(8-(2-chloro-4-cyanophenyl)quinolin-5-yl)-2-(2,6-difluoro-4-(2-hydroxypropyl)benzamido)propanoic acid]
– | 2.6 nM | – | Cc1c(-c2ccc(C[C@H](NC(=O)c3c(F)cc(N4CCS(=O)(=O)[C@H](C)C4)cc3F)C(=O)O)c3cccnc23)c(=O)n(C)c(=O)n1C [Example 237]
– | 26.1 nM | – | O=C(N[C@@H](Cc1ccc(Nc2nccc3ccncc23)c2ncccc12)C(=O)O)c1c(Cl)cccc1Cl [Example 336]
– | 1.3 nM | – | Cc1cc(C(F)(F)F)c(-c2ccc(C[C@H](NC(=O)c3c(F)cc(N4C[C@@H](C)OC[C@@H]4C)cc3F)C(=O)O)c3cccnc23)c(=O)n1C [Example 191]
